Reference: US5411983A, “Certain hyrdoxy-phosphinyl-oxy-phenylmethyl-imidazolium hydroxide inner salts as PAF antagonists” (American Cyanamid Company, priority 1993, dated 1995)
Where a name gives a salt, the structure may show the parent alone. Read-outs that look alike come from different tables or passages of the source.

Biological target: PAF receptor (Oryctolagus cuniculus, UniProt G1TEI7)
Experiment: Inhibition of PAF induced platelet aggregation in rabbit platelet rich plasma (PRP)
Format: cell-based, rabbit (male New Zealand White)
Parameters: immediately centrifuged at 800 rpm for 10 minutes at room temperature to recover the platelet rich plasma (PRP); endogenous in cells; host or cells: rabbit platelets in platelet rich plasma (male New Zealand White rabbits)
Conditions: rabbit platelet rich plasma
Protocol: Platelet activating factor (PAF) compounds were evaluated as PAF receptor antagonists in vitro by measuring inhibition of PAF induced platelet aggregation. Platelet aggregation was measured by a modification of the method of A. Wissner, et. al., J. Med. Chem., 27, 1174, 1984.
Approximately 120-240 ml of blood were collected by cardiac puncture from unanesthetized male New Zealand White rabbits (Whaley's Summit View Farms, Belvedere, N.J.) with the use of 3.2% sodium citrate anticoagulant (1 part of citrate/10 parts of blood). All syringes and pipets were plastic. The blood was gently mixed and immediately centrifuged at 800 rpm for 10 minutes at room temperature to recover the platelet rich plasma (PRP). Platelet poor plasma (PPP) was prepared by centrifuging PRP at 2800 rpm for 10 minutes at room temperature.
Dilutions (1:3000) Of PRP in Isoton diluent were made and platelet counts were determined on a Coulter Thrombocounter which was standardized with platelet reference standards (Interscience Platelet Control, Portland, Oreg.). PRP platelet counts were adjusted to 500,000 platelets/μl by the addition of PPP.
L-PAF was obtained from Calbiochem. A stock solution of 1-2 E-3M was prepared in 10% ethanol in water and serial working dilutions were made using phosphate buffered saline (PBS). 1-2 E-3M stock solutions of test compounds were prepared in 100% methanol and serially diluted in PBS. All solutions were made up in plastic tubes, stored on ice and protected from heat and light. Solutions were prepared fresh or frozen at -20° C. and used within 48 hours.
Incubation mixtures consisted of 400 μl PRP, 50 μl of PBS diluent or test compound and 50 μl of PAF agonist. More specifically, 400 μl of PRP was stabilized in a cuvette for 1-2 minutes at 37° C. in the aggregometer to achieve a stable baseline, then 50 μl of PBS or test compound, was added and incubated for 5 minutes before addition of the challenge concentration of PAF ([…], as determined from the dose response curve for PAF for that experiment). Aggregation was monitored for 5 minutes. Samples containing test compound or diluent were run simultaneously for comparison. Test compounds were initially evaluated at a screening concentration of 1E-5M. Those producing ≥ 50% inhibition of the magnitude of aggregation were then reevaluated in a dose response fashion (final concentrations 1E-7M to 5E-5M) and IC50 values were determined. Ki values were also calculated in some cases from [formula] where Ki =inhibitory constant
IC50 =molar concentration of test compound which gives 50% inhibition
[PAF]=molar concentration of PAF used as challenges
EC50 =molar concentration of PAF which gives 50% of maximal aggregation.
The recording equipment consisted of single or dual channel Chronolog aggregometers connected to dual channel 10 MV full scale deflection Omniscribe chart recorders (Houston Instruments). […] The bead suspension was used to set the 0% light transmission mark and clear water was used to set the 100% light transmission mark. These limits defined a full scale deflection. The aggregation traces were analyzed by a digitizing method (C. Kohler and B. Zoltan, J. Pharm. Methods, 12, 113, 1984) with x, y coordinate data stored in a computer file. A suitable program computed parameters of interest such as the magnitude of aggregation.

[1] = PAF challenge 5E-8M, read-out: IC50 (M) PRP, inhibition of PAF-induced platelet aggregation
[2] = IC50 (M) PRP, inhibition of PAF-induced platelet aggregation, PAF challenge 5E-8M
[3] = IC50 (M) PRP, inhibition of PAF-induced platelet aggregation, PAF challenge 1E-6M
[4] = IC50 (M) PRP, inhibition of PAF-induced platelet aggregation, PAF challenge 1E-7M
[5] = PAF challenge 1E-7M, read-out: IC50 (M) PRP, inhibition of PAF-induced platelet aggregation
[6] = PAF challenge 1E-6M, read-out: IC50 (M) PRP, inhibition of PAF-induced platelet aggregation

Sequence of PAF receptor (G1TEI7 1-342): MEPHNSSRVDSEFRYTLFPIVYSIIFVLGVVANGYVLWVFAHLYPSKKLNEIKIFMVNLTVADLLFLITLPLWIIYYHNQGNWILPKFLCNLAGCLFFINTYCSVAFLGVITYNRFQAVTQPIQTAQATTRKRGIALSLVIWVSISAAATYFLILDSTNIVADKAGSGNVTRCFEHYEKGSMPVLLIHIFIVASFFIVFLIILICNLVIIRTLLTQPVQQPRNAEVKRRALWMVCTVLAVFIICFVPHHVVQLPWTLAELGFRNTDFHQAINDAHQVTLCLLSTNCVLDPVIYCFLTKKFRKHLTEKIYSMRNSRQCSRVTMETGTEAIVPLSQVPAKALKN

Row | SMILES | IC50 [2] [M] | IC50 [4] [M] | also measured
1 | CCCCCCCCCCCCCCCCOCC(COC(=O)c1cccc(C[n+]2ccccn2)c1)OC (stereo not drawn) [1-[[3-[[3-(Hexadecyloxy)-2-methoxypropoxy]carbonyl]phenyl]methyl]pyridazinium, bromide] |  |  | IC50 [1]: 1.1e-05 M
2 | CCCCCCCCCCCCCCCCOCC(COCc1cccc(Cn2ccnc2)c1)OC (stereo not drawn) [1-[[3-[[3-(Hexdecyloxy)-2-methoxypropoxy]methyl]phenyl]methyl]-1H-imidazole] |  |  | IC50 [1]: 5.8e-05 M
3 | CCCCCCCCCCCCCCCCCCOP(=O)([O-])Oc1cccc(C[n+]2ccccc2)c1 [1-[[3-[[Hydroxy(octadecyloxy)phosphinyl]oxy]phenyl]methyl]pyridinium, hydroxide, inner salt] | 4.2e-05 |  | 
4 | CCCCCCCCCCCCCCc1cccc(OCC(COP(=O)([O-])Oc2cccc(C[n+]3ccccc3)c2)OC)c1 (stereo not drawn) [1-[[3-[[Hydroxy[2-methoxy-3-(3-tetradecylphenoxy)propoxy]phosphinyl]oxy]phenyl]methyl]pyridinium, hydroxide, inner salt] | 4.1e-06 | 5.4e-06 | IC50 [3]: 5.3e-05 M
5 | CCCCCCCCCCCCCCCCOCC(COP(=O)([O-])Oc1cccc(C[n+]2ccccc2)c1)OC (stereo not drawn) [1-[[3-[[[3-(Hexadecyloxy)-2-methoxypropoxy]hydroxyphosphinyl]oxy]phenyl]methyl]pyridinium, hydroxide, inner salt] | 5.78e-06 to 6e-06 | 1e-05 | IC50 [3]: 0.00018 M
6 | CCCCCCCCCCCCOc1cccc(OCC(COP(=O)([O-])Oc2cccc(C[n+]3ccccc3)c2)OC)c1C (stereo not drawn) [1-[[3-[[[3-[3-(Dodecyloxy)-2-methylphenoxy]-2-methoxypropoxy]hydroxyphosphinyl]oxy]phenyl]methyl]pyridinium, hydroxide, inner salt] | 1.7e-07 |  | 
7 | CCCCCCCCCCCCOc1cccc(OCC(COP(=O)([O-])Oc2cccc(C[n+]3cccc4ccccc43)c2)OC)c1C (stereo not drawn) [1-[[3-[[[3-[3-(Dodecyloxy)-2-methylphenoxy]-2-methoxypropoxy]hydroxyphosphinyl]oxy]phenyl]methyl]quinolinium, hydroxide, inner salt] | 7.3e-05 | 1.2e-05 | 
8 | CCCCCCCCCCCCCCCCCCNC(=O)OCC(COP(=O)([O-])Oc1cccc(C[N+](C)(C)C)c1)OC (stereo not drawn) [3-[(1-(Hydroxy-4-methoxy-7-oxo-2,6-dioxa-8-aza-1-phosphahexacosyl)oxy]- --N, --N, --N-trimethylbenzenemethanaminium, hydroxide, inner salt, P-oxide] | 0.0001 |  | 
9 | C=C(C)COC(COCCCCCCCCCCCCCCCC)COP(=O)([O-])Oc1ccccc1C[n+]1ccsc1 (stereo not drawn) [3-[[2-[[[3-(Hexadecyloxy)-2-[(2-methyl-2-propenyl)oxy]propoxy]hydroxyphosphinyl]oxy]phenyl]methyl]thiazolium, hydroxide, inner salt] | 2.6e-06 |  | 
10 | CCCCCCCCCCCCCCCCOCC(COC(=O)c1cccc(C[N+](C)(C)C)c1)OC (stereo not drawn) [3-[[3-(Hexadecyloxy)-2-methoxypropoxy]-carbonyl]- --N, --N, --N-trimethylbenzenemethanaminium, bromide] |  |  | IC50 [5]: 3e-05 M; IC50 [1]: 3.1e-05 M
11 | CCCCCCCCCCOCCOCCOCC(COP(=O)([O-])Oc1cccc(C[n+]2ccsc2)c1)OC (stereo not drawn) [3-[[3-[(1-Hydroxy-4-methoxy-2,6,9,12-tetraoxa-l-phosphadocos-l-yl)oxy]-phenyl]methyl]thiazolium, hydroxide, inner salt, P-oxide] | 8.3e-06 |  | 
12 | CCCCCCCCCCCCCCCCCCNC(=O)OCC(COP(=O)([O-])Oc1cccc(C[n+]2ccccc2)c1)OC (stereo not drawn) [3-[[3-[(1-Hydroxy-4-methoxy-7-oxo-2,6-dioxa-8-aza-1-phosphahexacosyl)oxy]phenyl]methyl]pyridinium, hydroxide, inner salt, P-oxide] | 4.4e-06 |  | 
13 | COC(COCc1ccc(OCc2ccccc2)cc1)COP(=O)([O-])Oc1cccc(C[n+]2ccsc2)c1 (stereo not drawn) [3-[[3-[(Hydroxy[2-methoxy-3-[[4-(phenylmethoxy)phenyl]methoxy]propoxy]phosphinyl]oxy]phenyl]methyl)thiazolium, hydroxide, inner salt] | 0.0004 |  | 
14 | CCCCCCCCCCOCCOCCOCC(COP(=O)([O-])Oc1cccc(C[n+]2csc(C)c2)c1)OC (stereo not drawn) [3-[[3-[[1-Hydroxy-4-methoxy-2,6,9,12-tetraoxa-1-phosphadocosyl]oxy]phenyl]-methyl]-5-methylthiazolium, hydroxide, inner salt, P-oxide] | 2.2e-06 | 3.9e-06 | IC50 [3]: 9.4e-05 M
15 | CCCCCCCCCCCCCCCCOCC(COC(=O)c1cccc(C[n+]2ccsc2)c1)OC (stereo not drawn) [3-[[3-[[3-(Hexadecyloxy)-2-methoxypropoxy]carbonyl]phenyl]methyl]thiazolium, bromide] |  |  | IC50 [6]: 4.9e-05 M; IC50 [5]: 6.1e-06 M; IC50 [1]: 3.6e-06 M
16 | CCCCCCCCCCCCCCCCOCC(COCc1cccc(C[n+]2ccsc2)c1)OC (stereo not drawn) [3-[[3-[[3-(Hexadecyloxy)-2-methoxypropoxy]methyl]phenyl]methyl]thiazolium bromide] |  |  | IC50 [6]: 2.6e-05 M; IC50 [5]: 3.7e-06 M; IC50 [1]: 1.3e-06 M
17 | CCCCCCCCCCCCCCCCCCOP(=O)([O-])Oc1cccc(C[n+]2ccsc2)c1 [3-[[3-[[Hydroxy(octadecyloxy)phosphinyl]oxy]phenyl]methyl]thiazolium, hydrozide, inner salt] | 2.2e-05 |  | 
18 | COC(CCCOCc1ccccc1)COP(=O)([O-])Oc1cccc(C[n+]2ccsc2)c1 (stereo not drawn) [3-[[3-[[Hydroxy[[5-(phenylmethoxy)-2-methoxypentyl]oxy]phosphinyl]oxy]-phenyl]methyl]thiazolium, hydroxide, inner salt] | 0.0001 |  | 
19 | C=C(C)COC(COCCCCCCCCCCCCCCCC)COP(=O)([O-])Oc1cccc(C[n+]2ccsc2)c1 (stereo not drawn) [3-[[3-[[[3-(Hexadecyloxy)-2-[(2-methyl-2-propenyl)oxy]propoxy]hydroxyphosphinyl]oxy]phenyl]methyl]thiazolium, hydroxide, inner salt] | 2.1e-06 | 2.6e-06 | IC50 [3]: 3.9e-05 M
20 | CCCCCCCCCCCCOc1cccc(OCC(COP(=O)([O-])Oc2cccc(C[n+]3csc(CCO)c3C)c2)OC)c1C (stereo not drawn) [3-[[3-[[[3-[3-(Dodecyloxy)-2-methyl-phenoxy]-2-methoxypropoxy]hydroxyphosphinyl]oxy]phenyl]methyl)-5-(2-hydroxyetbyl)-4-methylthiazolium, hydroxide, inner salt] | 1.7e-05 |  | 
21 | CCCCCCCCCCCCOc1cccc(OCC(COP(=O)([O-])Oc2cccc(C[n+]3csc(C)c3)c2)OC)c1C (stereo not drawn) [3-[[3-[[[3-[3-(Dodecyloxy]-2-methylphenoxy]-2-methoxypropoxy]hydroxyphosphinyl]oxy]phenyl]methyl]-5-methylthiazolium, hydroxide, inner salt] | 9.3e-07 | 2e-06 | IC50 [3]: 3e-05 M
22 | COC(COCc1ccc(OCc2ccc(Cl)cc2)cc1)COP(=O)([O-])Oc1cccc(C[n+]2ccsc2)c1 (stereo not drawn) [3-[[3-[[[3-[[4-[(4-Chlorophenyl)methoxy]phenyl]methoxy]-2-methoxypropoxy]hydroxyphosphinyl]oxy]phenyl]methyl]thiazolium, hydroxide, inner salt] | 3e-05 |  | 
23 | COC(COCCCCCCCCOc1ccc(-c2ccccc2)cc1)COP(=O)([O-])Oc1cccc(C[n+]2ccsc2)c1 (stereo not drawn) [3-[[3-[[[3-[[8-([1,1'-Biphenyl]-4-yloxy)octyl]-oxy]-2-methyoxypropoxy]hydroxyphosphinyl]-oxy]phenyl]methyl]thiazolium, hydroxide, inner salt] |  | 2.3e-06 | 
